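The compound was tested at five concentrations on cells cultured in 96-well plates, with a 48-hour exposure period. The concentration for full growth arrest is given as TGI.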
Key:
Assay in all cases: DTP human tumour cell line panel, 48 h
[1] = test system: HL-60(TB) leukemia
[2] = test system: HS 578T breast
[3] = test system: HCT-15 colon
[4] = test system: HT29 colon
[5] = test system: SN12C renal
[6] = test system: SK-MEL-28 melanoma
[7] = test system: IGROV1 ovarian
[8] = test system: NCI-H522 lung
[9] = test system: NCI-H460 lung
[10] = test system: MDA-MB-231 breast
[11] = test system: T-47D breast
[12] = test system: OVCAR-4 ovarian
[13] = test system: DU-145 prostate
[14] = test system: HCC-2998 colon
[15] = test system: HOP-62 NSCLC
[16] = test system: SK-MEL-5 melanoma
[17] = test system: M14 melanoma
[18] = test system: HOP-92 NSCLC
[19] = test system: RXF 393 renal
[20] = test system: RPMI-8226 leukemia
[21] = test system: SK-OV-3 ovarian
[22] = test system: EKVX NSCLC
[23] = test system: K-562 leukemia
[24] = test system: TK-10 renal
[25] = test system: SF-268 CNS
[26] = test system: COLO 205 colon
[27] = test system: A549 NSCLC
[28] = test system: SNB-19 CNS
[29] = test system: UACC-257 melanoma
[30] = test system: OVCAR-5 ovarian
[31] = test system: PC-3 prostate
[32] = test system: U251 CNS
[33] = test system: NCI-H226 lung
[34] = test system: MOLT-4 leukemia
[35] = test system: NCI-H23 lung
[36] = test system: UO-31 renal
[37] = test system: UACC-62 melanoma
[38] = test system: MALME-3M melanoma
[39] = test system: SR leukemia
[40] = test system: OVCAR-8 ovarian
[41] = test system: SW-620 colon
[42] = test system: NCI/ADR-RES ovarian
[43] = test system: HCT-116 colon
[44] = test system: SK-MEL-2 melanoma
[45] = test system: A498 renal
[46] = test system: ACHN renal
[47] = test system: SF-539 CNS
[48] = test system: 786-0 renal
[49] = test system: SNB-75 CNS
[50] = test system: KM12 colon
[51] = test system: MCF7 breast
[52] = test system: CAKI-1 renal
[53] = test system: OVCAR-3 ovarian
[54] = test system: SF-295 CNS
[55] = test system: BT-549 breast
[56] = test system: CCRF-CEM leukemia
[57] = test system: MDA-MB-435

Molecule `O=C(CSCC(=O)N/N=C/c1ccc(F)cc1)N/N=C/c1ccc(F)cc1` has a TGI [1] of over 100 µM, a TGI [2] of over 100 µM and a TGI [3] of over 100 µM. For the same molecule, the TGI [4] was over 100 µM, the TGI [5] was over 100 µM and the TGI [6] was over 100 µM. For the same molecule, the TGI [7] was over 100 µM, the TGI [8] was over 100 µM and the TGI [9] was over 100 µM. For the same molecule, the TGI [10] was over 100 µM, the TGI [11] was over 100 µM and the TGI [12] was over 100 µM. For the same molecule, the TGI [13] was over 100 µM, the TGI [14] was over 100 µM and the TGI [15] was over 100 µM. For the same molecule, the TGI [16] was over 100 µM, the TGI [17] was over 100 µM and the TGI [18] was over 100 µM. For the same molecule, the TGI [19] was over 100 µM, the TGI [20] was over 100 µM and the TGI [21] was over 100 µM. The TGI [22] was over 100 µM, the TGI [23] was over 100 µM and the TGI [24] was over 100 µM. It also gave a TGI [25] of over 100 µM, a TGI [26] of over 100 µM and a TGI [27] of over 100 µM. It also gave a TGI [28] of over 100 µM, a TGI [29] of over 100 µM and a TGI [30] of over 100 µM. It also gave a TGI [31] of over 100 µM, a TGI [32] of over 100 µM and a TGI [33] of over 100 µM. The TGI [34] was 76.9 µM, the TGI [35] was over 100 µM and the TGI [36] was over 100 µM. For the same molecule, the TGI [37] was over 100 µM, the TGI [38] was over 100 µM and the TGI [39] was over 100 µM. It also gave a TGI [40] of over 100 µM, a TGI [41] of over 100 µM and a TGI [42] of over 100 µM. The TGI [43] was over 100 µM, the TGI [44] was over 100 µM and the TGI [45] was over 100 µM. The TGI [46] was over 100 µM, the TGI [47] was over 100 µM and the TGI [48] was over 100 µM. For the same molecule, the TGI [49] was over 100 µM, the TGI [50] was over 100 µM and the TGI [51] was over 100 µM.
In the case of `COC12OC3(C4OC41)C(C(=O)O[C@H]3CO[Si](C)(C)C(C)(C)C)C2S(=O)(=O)c1ccccc1` (some centres not stated), the TGI [52] was 3.33 µM, the TGI [1] was 7.66 µM and the TGI [2] was over 100 µM. The TGI [53] was over 100 µM, the TGI [3] was over 100 µM and the TGI [5] was over 9.26 µM. It also gave a TGI [6] of over 5.53 µM, a TGI [8] of 50.4 µM and a TGI [9] of over 100 µM. The TGI [10] was over 7.32 µM, the TGI [11] was over 100 µM and the TGI [13] was over 6.06 µM. It also gave a TGI [14] of over 100 µM, a TGI [15] of over 5.97 µM and a TGI [18] of over 100 µM. It also gave a TGI [20] of 11.7 µM, a TGI [21] of over 30.4 µM and a TGI [22] of over 5.18 µM. It also gave a TGI [23] of 5.03 µM, a TGI [54] of over 100 µM and a TGI [24] of over 100 µM. It also gave a TGI [55] of over 100 µM, a TGI [26] of 47.3 µM and a TGI [27] of over 100 µM. For the same molecule, the TGI [29] was over 12.6 µM, the TGI [30] was over 12.2 µM and the TGI [31] was over 90.2 µM. The TGI [32] was over 7.83 µM, the TGI [33] was over 100 µM and the TGI [34] was 3.53 µM. It also gave a TGI [35] of over 100 µM, a TGI [36] of over 5.18 µM and a TGI [37] of over 7.52 µM. The TGI [38] was over 85.1 µM, the TGI [56] was 4.04 µM and the TGI [39] was over 100 µM. It also gave a TGI [40] of over 100 µM, a TGI [41] of over 31.6 µM and a TGI [42] of over 100 µM. The TGI [43] was over 7.06 µM, the TGI [44] was over 5.33 µM and the TGI [57] was over 5.11 µM. For the same molecule, the TGI [46] was over 83.9 µM, the TGI [47] was over 100 µM and the TGI [48] was over 7.71 µM. For the same molecule, the TGI [51] was over 100 µM.

— PubChem BioAssay (NCI)
